The source of these data is US20120016000A1, “METHOD TO ASSAY PHOSPHOLIPID AND TRIGLYCERIDE TRANSFER ACTIVITY OF MICROSOMAL TRIGLYCERIDE TRANSFER PROTEIN” (priority 2010, published 2012).

Data set [1] deals with T1, purified bovine liver MTP (Bos taurus, UniProt P55156).
T1 construct: purified bovine liver MTP; from tissue; host or cells: bovine liver
T1 sequence (P55156 19-887 limits assumed): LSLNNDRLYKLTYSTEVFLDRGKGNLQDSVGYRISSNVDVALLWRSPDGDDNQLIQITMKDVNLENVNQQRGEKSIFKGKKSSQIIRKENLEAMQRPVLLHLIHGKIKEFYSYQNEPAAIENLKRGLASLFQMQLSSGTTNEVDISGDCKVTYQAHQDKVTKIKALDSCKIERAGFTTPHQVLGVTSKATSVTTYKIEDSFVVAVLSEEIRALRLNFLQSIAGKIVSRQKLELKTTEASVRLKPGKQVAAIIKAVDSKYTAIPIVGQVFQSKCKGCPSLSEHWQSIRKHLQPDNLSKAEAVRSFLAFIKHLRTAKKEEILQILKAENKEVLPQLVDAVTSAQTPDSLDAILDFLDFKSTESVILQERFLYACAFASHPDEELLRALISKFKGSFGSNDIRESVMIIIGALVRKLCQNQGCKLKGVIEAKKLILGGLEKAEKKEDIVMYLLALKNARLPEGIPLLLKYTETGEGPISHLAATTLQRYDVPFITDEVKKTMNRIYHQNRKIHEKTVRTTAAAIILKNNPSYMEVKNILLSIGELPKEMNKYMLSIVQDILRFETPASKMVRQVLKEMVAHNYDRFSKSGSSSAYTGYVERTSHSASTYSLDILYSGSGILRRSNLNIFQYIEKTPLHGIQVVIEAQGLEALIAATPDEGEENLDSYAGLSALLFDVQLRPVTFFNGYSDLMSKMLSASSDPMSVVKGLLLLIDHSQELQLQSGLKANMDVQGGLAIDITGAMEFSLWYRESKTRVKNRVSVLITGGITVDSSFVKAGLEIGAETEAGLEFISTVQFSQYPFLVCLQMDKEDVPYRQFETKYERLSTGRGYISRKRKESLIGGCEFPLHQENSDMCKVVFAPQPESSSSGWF
T1 sequence (P05307 21-510 partner): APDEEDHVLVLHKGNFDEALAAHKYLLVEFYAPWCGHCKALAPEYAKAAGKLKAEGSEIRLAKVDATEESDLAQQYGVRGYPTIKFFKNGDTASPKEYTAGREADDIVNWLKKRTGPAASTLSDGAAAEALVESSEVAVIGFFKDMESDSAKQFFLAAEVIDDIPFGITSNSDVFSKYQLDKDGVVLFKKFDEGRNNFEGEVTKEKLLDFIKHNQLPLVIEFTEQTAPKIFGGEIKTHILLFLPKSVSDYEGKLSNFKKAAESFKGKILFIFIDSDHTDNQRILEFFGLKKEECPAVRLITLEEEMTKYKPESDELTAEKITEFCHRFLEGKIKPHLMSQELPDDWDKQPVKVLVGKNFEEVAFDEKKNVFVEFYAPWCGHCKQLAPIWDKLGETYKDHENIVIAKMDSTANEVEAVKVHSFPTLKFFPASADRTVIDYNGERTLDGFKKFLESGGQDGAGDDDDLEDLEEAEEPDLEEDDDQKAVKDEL
Description: Fluorescence phospholipid (NBD-PE) transfer activity assay of MTP. It is filed as biochemical. Conditions: dose-dependent inhibition, FIG. 5B. The text has this:
(§1) The present invention is directed to very selective, simple, rapid and sensitive fluorescence assays to measure triglyceride (NBD-TG) and phospholipid (NBD-PE) transfer by MTP. These assays have been modified and developed into a “mix and measure” format kit that is stable, user friendly, and consists of only two components: a master mix and purified MTP. The master mix contains all the ingredients necessary for MTP activity. In this assay, MTP transfers fluorescent lipids from donor to acceptor vesicles. Lipid fluorescence in these vesicles is mostly quenched. Unquenched fluorescence (˜0.05% of total fluorescence) is measured as background. During the transfer of fluorescent lipids by MTP, fluorescence is exposed to aqueous phase and detected by the Fluorimeter. These fluorescence measurements represent the amount being transferred. Inclusion of antagonist during these assays reduces increases in fluorescence and represents inhibition of the transfer activity. […]
(§2) Increasing amounts of DMSO (0-1%) had no significant effect on both triglyceride (FIG. 3A) and phospholipid (FIG. 3B) transfer activities of MTP. […] Evaluation of signal-to-noise ratio of assay across the entire 96-well plate: Fluorescence in the blank (n=48) and MTP (n=48) was used to determine the values of noise and signal, respectively. […]

For data set [2], the target named is T1, purified bovine liver MTP. Description: Fluorescence triglyceride (NBD-TG) transfer activity assay of MTP. Conditions: dose-dependent inhibition, FIG. 5A. Type of data set: biochemical.
Text: as §1, §2

The conditions of data set [3]: guinea pigs; cited from earlier work.
The conditions of data set [4]: in vivo; cited from earlier work.

Each structure is given as a SMILES string.

On to `O=C(Nc1ccc2c(c1)CCN(Cc1ncn[nH]1)C2)c1ccccc1-c1ccc(C(F)(F)F)cc1` [CP-346086], for which the IC50 in data set [1] came to 9.4 nM; in data set [2], 0.33 nM. Regarding `CCOC(=O)C(COC(=O)Cc1ccc(NC(=O)c2ccccc2-c2ccc(C(F)(F)F)cc2)c(C(=O)N(C)C)c1)(C(=O)OCC)c1ccccc1` [JTT-130], in data set [3], the hepatic triglyceride result is given as “without increasing hepatic triglyceride”; the “plasma triglyceride and LDL cholesterol” value is “lower plasma triglyceride and LDL cholesterol”. In the case of `COc1cccc(C(=O)Nc2ccc3c(c2)CCN(C(=O)Oc2ccccc2)C3)c1-c1ccc(C(F)(F)F)cc1` [SLx-4090], in data set [4], the plasma lipids result is “lower plasma lipids”.
